Key:
LLC tumor [1] = test: In vivo tumor reduction study, single i.v. injection; set-up: species or system C57Bl/6 mice; settings: emulsified Cpt 30 mg/kg i.v.; all animals reached end point at about day 5
Experimental: The efficacy of the drug conjugated silica NPs was next evaluated using xenograft models of LLC tumor developed by s.c. injection of LLC cells in the flank of C57BL/6 mice. […] Using Cpt as a reference point, the following regimens were administrated by a single i.v. injection: a, PBS; b, PEGylated blank silica NPs; c, emulsified Cpt, 30 mg/kg; d, Cpt-NP, 200 nm, 25 mg/kg; e, Cpt-NP, 20 nm, 25 mg/kg. Tumor size and body weight were then monitored for 10 days. […] Both Cpt-NPs 20 nm and 200 nm in diameter delayed tumor growth at Day 7 and 6, respectively, with statistical significance comparing with control group receiving PBS (p<0.05 by t-test). […] All animals in free Cpt group reached end point with >20% body weight loss at about day 5.
4.5. In vivo Tumor Reduction Study. Female C57Bl/6 mice, 8-week old, were anesthetized, shaved, and prepared for implantation of the tumor cells. […] After two weeks when tumors had reached ˜300 mm^3, mice were divided into five groups of five mice, minimizing weight and tumor size difference. Tumor-bearing mice were treated by intravenous injection of PBS (1×), PEGylated blank silica NPs (250 mg/kg), emulsified free CPT (Tween 80 (5%)/DMSO (10%) in PBS (1×), 30 mg/kg), CPT-NP (200 nm, 25 mg/kg) or CPT-NP (20 nm, 25 mg/kg). […]

[2] = tested on: LNCaP prostate adenocarcinoma cells; test: In vitro toxicity (MTT assay); format: cell-based; settings: Homo sapiens, MTT assay after 96 h, CPT or equivalent CPT
Experimental: 3.3. In vitro toxicity (MTT assay). LNCaP prostate adenocarcinoma cell lines were obtained from ATCC (Manassas, Va., USA). Cells were seeded in 96-well plates at 5,000 cells/well and grown in medium containing 10% fetal bovine serum at 37° C. for 24 h in a humidified 5% CO2 atmosphere. The medium was replaced with fresh medium containing CPT, CPT-NPs in concentrations ranging from 1 nM to 10 μM of CPT or equivalent CPT (CPT-NPs). At each concentration, six wells per plate were treated. The effect of the compounds on cell growth was measured by the MTT assay after 96 h. The medium was removed, the cells were rinsed with PBS, MTT solution was added at a concentration of 0.5 mg/mL, and the plates were incubated for 4 hours at 37° C. The medium was removed and the formazan crystals were solubilized in MTT solubilization solution. Absorbance was measured at 560 nm using a Victor V microplate reader (Perkin Elmer, Waltham, Mass.). The percentage of cell survival was calculated relative to untreated cells, and IC50 values were determined from plots of cell survival versus dose (Table 4).

LLC tumor [3] = test: In vivo tumor prevention study; set-up: species or system C57Bl/6 mice; settings: s.c. co-injection with LLC cells
Experimental: To access the ability of Cpt-NCs to prevent establishment of a murine lung cancer in an in vivo model, Cpt-NCs were evaluated in the rapidly growing subcutaneous (s.c.) LLC tumor model in C57Bl/6 female mice. The ability of Cpt50 (5 mg/kg) to prevent LLC tumor establishment and growth was assessed by comparing to free Cpt (5 mg/kg) and LLC cancer cells alone without any treatment. The mice were s.c. injected with the mixture of [LLC and Cpt50], [LLC and Cpt] or LLC alone Animals were monitored clinically and the tumors were measured daily without knowledge of the treatment received.
Female C57Bl/6 mice, 12-13 weeks old, were anesthetized, shaved, and prepared for implantation of the tumor cells. LLC cells were collected from culture, and 750,000 cells were then mixed with Cpt50 and immediately injected subcutaneously into one flank of a mouse. The dose of equivalent Cpt was 5 mg/kg. Equivalent injections of cells with free CPT solubilized with Tween 80 (5%)/DMSO (10%) or PBS were also performed (n=5). The simultaneous injection procedure is required to assure that the cancer cells and the treatment are delivered to the same subcutaneous pocket as it would be easy to accidentally inject into different spaces when performing two separate injections.

MCF-7 tumors = test: In vivo tumor reduction study, MCF-7 xenograft
Experimental: To further study the effect of particle size, a xenograft human breast cancer model was chosen. Subcutaneous MCF-7 tumors developed on the flank of athymic nude mice were used to evaluate the antitumor efficacy of the drug-silica nanoconjugates with different sizes. The nude mice were implanted with an estrogen pellet and 1,000,000 MCF-7 cells per site. After tumors had developed to ˜40 mm^3, comparative efficacy studies were performed by dividing animals into six groups (n=20 or 24) to minimize weight and tumor size differences among the groups.
Female athymic nude, OVX, 9-week old mice were anesthetized, and prepared for implantation of the tumor cells. […]
After dosing, the animals were monitored closely, and measurements of the tumor size for each animal were performed at regular intervals using calipers without knowledge of which injection each animal had received. The tumor volume for each time point was calculated according to the formula (length)×(width)/2, where the long axis is the length, the short axis is the width. […] When an animal exited the study due to tumor size or treatment related death, the final tumor size recorded for the animal was included with the data used to calculate the mean size at subsequent time point.

| Structure (SMILES) | body weight loss (LLC tumor [1]) [%] | IC50 [2] [nM] | Day of statistically significant difference vs LLC group (LLC tumor [3]; 5 mg/kg) [days] | Tumor growth prevention (LLC tumor [3]; 5 mg/kg equivalent Cpt) | Day from which tumor growth delay was significant vs PBS group (MCF-7 tumors; NCs 20 mg/kg i.v. Q4d×3, Irinotecan 100 mg/kg i.p. Qwk×3, *p<0.05) [days] | Body weight / systemic toxicity (MCF-7 tumors; NCs 20 mg/kg, Irinotecan 100 mg/kg) |
| --- | --- | --- | --- | --- | --- | --- |
| CC[C@@]1(O)C(=O)OCc2c1cc1n(c2=O)Cc2cc3ccccc3nc2-1 [CPT, Camptothecin] | > 20 | 7 | 20 | complete inhibition of tumor growth after Day 20 |  |  |
| CCc1c2c(nc3ccc(OC(=O)N4CCC(N5CCCCC5)CC4)cc13)-c1cc3c(c(=O)n1C2)COC(=O)[C@]3(O)CC [Irinotecan] |  |  |  |  | 8 | Significant body weight loss |

From US9028880B2, “Silica nanoparticle agent conjugates” (priority 2010, dated 2015)
